Source: patent publication US8697725B2, “Tetrahydroquinoline derivatives and their pharmaceutical use” (GlaxoSmithKline LLC, priority 2009, dated 2014)
Structures can show the parent of a compound that is named as a salt.

system: IL-6; assay: Measurement of LPS Induced IL-6 Secretion from Whole Blood; format: cell-based; conditions: 24 h, LPS 200 ng/ml, immunoassay, read-out: pIC50, LPS induced IL-6 secretion from whole blood (converted)
Protocol: Measurement of LPS Induced IL-6 Secretion from Whole Blood
Activation of monocytic cells by agonists of toll-like receptors such as bacterial lipopolysaccharide (LPS) results in production of key inflammatory mediators including IL-6. Such pathways are widely considered to be central to the pathophysiology of a range of auto-immune and inflammatory disorders.
Compounds to be tested are diluted to give a range of appropriate concentrations of which 1 ul of the diluted stocks is added to a 96 well plate. Following addition of whole blood (130 ul) the plates are incubated at 37 degrees (5% CO2) for 30 min before the addition of 10 ul of 2.8 ug/ml LPS, diluted in complete RPMI 1640 (final concentration=200 ng/ml), to give a total volume of 140 ul per well. After further incubation for 24 hours at 37 degrees, 140 ul of PBS are added to each well. The plates are sealed, shaken for 10 minutes and then centrifuged (2500 rpm×10 min). 100 ul of the supernatant are removed and IL-6 levels assayed by immunoassay (typically by MesoScale Discovery technology) either immediately or following storage at −20 degrees. Concentration response curves for each compound was generated from the data and an IC50 value was calculated.

Compound	IC50 [µM]
CC(=O)N1c2ccc(-c3cn(CCCN)nn3)cc2[C@H](NC(=O)OC(C)C)C[C@@H]1C [Example 74, 1-Methylethyl {(2S,4R)-1-acetyl-6-[1-(3-aminopropyl)-1H-1,2,3-triazol-4-yl]-2-methyl-1,2,3,4-tetrahydro-4-quinolinyl}carbamate hydrochloride]	≤ 31.6
CC(=O)N1c2ccc(-c3ccc(CCN)cc3)cc2[C@H](NC(=O)OC(C)C)C[C@@H]1C [Example 96, 1-Methylethyl {(2S,4R)-1-acetyl-6-[4-(2-aminoethyl)phenyl]-2-methyl-1,2,3,4-tetrahydro-4-quinolinyl}carbamate hydrochloride]	≤ 31.6
CC(=O)N1c2ccc(-c3cn(CCN)nn3)cc2[C@H](NC(=O)OC(C)C)C[C@@H]1C [Example 79, 1-Methylethyl {(2S,4R)-1-acetyl-6-[1-(2-aminoethyl)-1H-1,2,3-triazol-4-yl]-2-methyl-1,2,3,4-tetrahydro-4-quinolinyl}carbamate hydrochloride]	≤ 31.6
CC(=O)N1c2ccc(-c3noc(CN)n3)cc2[C@H](NC(=O)OC(C)C)C[C@@H]1C [Example 66, 1-Methylethyl {(2S,4R)-1-acetyl-6-[5-(aminomethyl)-1,2,4-oxadiazol-3-yl]-2-methyl-1,2,3,4-tetrahydro-4-quinolinyl}carbamate hydrochloride]	≤ 31.6
CC(=O)N1c2ccc(-c3ccc(CC(=O)O)cc3)cc2[C@H](NC(=O)OC(C)C)C[C@@H]1C [Example 67, {4-[(2S,4R)-1-Acetyl-2-methyl-4-({[(1-methylethyl)oxy]carbonyl}amino)-1,2,3,4-tetrahydro-6-quinolinyl]phenyl}acetic acid]	≤ 31.6
CC(=O)N1c2ccc(-c3cn(CCC(=O)O)cn3)cc2[C@@H](NC(=O)OC(C)C)C[C@H]1C (racemic) [Example 99, 3-{(Cis)-4-[1-acetyl-2-methyl-4-({[(1-methylethyl)oxy]carbonyl}amino)-1,2,3,4-tetrahydro-6-quinolinyl]-1H-imidazol-1-yl}propanoic acid trifluoroacetate]	≤ 31.6
CC(=O)N1c2ccc(-c3cn(CC(=O)O)nn3)cc2[C@H](NC(=O)OC(C)C)C[C@@H]1C [Example 76, {4-[(2S,4R)-1-Acetyl-2-methyl-4-({[(1-methylethyl)oxy]carbonyl}amino)-1,2,3,4-tetrahydro-6-quinolinyl]-1H-1,2,3-triazol-1-yl}acetic acid]	≤ 31.6
CC(=O)N1c2ccc(-c3ccc(CCC(=O)O)cc3)cc2[C@H](NC(=O)OC(C)C)C[C@@H]1C [Example 102, 3-{4-[(2S,4R)-1-Acetyl-2-methyl-4-({[(1-methylethyl)oxy]carbonyl}amino)-1,2,3,4-tetrahydro-6-quinolinyl]phenyl}propanoic acid]	≤ 31.6
CC(=O)N1c2ccc(-c3noc(CCN)n3)cc2[C@H](NC(=O)OC(C)C)C[C@@H]1C [Example 77, 1-Methylethyl {(2S,4R)-1-acetyl-6-[5-(2-aminoethyl)-1,2,4-oxadiazol-3-yl]-2-methyl-1,2,3,4-tetrahydro-4-quinolinyl}carbamate hydrochloride]	≤ 31.6
CNCCc1noc(-c2ccc3c(c2)[C@H](NC(=O)OC(C)C)C[C@H](C)N3C(C)=O)n1 [Example 71, 1-Methylethyl((2S,4R)-1-acetyl-2-methyl-6-{3-[2-(methylamino)ethyl]-1,2,4-oxadiazol-5-yl}-1,2,3,4-tetrahydro-4-quinolinyl)carbamate hydrochloride]	≤ 31.6
CC(=O)N1c2ccc(-c3cn(CCCN(C)C)nn3)cc2[C@H](NC(=O)OC(C)C)C[C@@H]1C [Example 81, 1-Methylethyl((2S,4R)-1-acetyl-6-{1-[3-(dimethylamino)propyl]-1H-1,2,3-triazol-4-yl}-2-methyl-1,2,3,4-tetrahydro-4-quinolinyl)carbamate formate salt]	≤ 31.6
CC(=O)N1c2ccc(-c3nc(CN)no3)cc2[C@H](NC(=O)OC(C)C)C[C@@H]1C [Example 69, 1-Methylethyl {(2S,4R)-1-acetyl-6-[3-(aminomethyl)-1,2,4-oxadiazol-5-yl]-2-methyl-1,2,3,4-tetrahydro-4-quinolinyl}carbamate hydrochloride]	≤ 31.6
CC(=O)N1c2ccc(-c3ccc(CCO)cc3)cc2[C@H](NC(=O)OC(C)C)C[C@@H]1C [Example 95, 1-Methylethyl {(2S,4R)-1-acetyl-6-[4-(2-hydroxyethyl)phenyl]-2-methyl-1,2,3,4-tetrahydro-4-quinolinyl}carbamate]	≤ 31.6

The remaining lines, values ahead:

IC50 [µM]	Compound
≤ 31.6	CC(=O)N1c2ccc(-c3c[nH]nn3)cc2[C@H](NC(=O)OC(C)C)C[C@@H]1C [Example 65, 1-Methylethyl[(2S,4R)-1-acetyl-2-methyl-6-(1H-1,2,3-triazol-4-yl)-1,2,3,4-tetrahydro-4-quinolinyl]carbamate]
≤ 31.6	CC(=O)N1c2ccc(-n3cnc(CNCCO)c3)cc2[C@@H](NC(=O)OC(C)C)C[C@H]1C (racemic) [Example 92, 1-Methylethyl[(cis)-1-acetyl-6-(4-{[(2-hydroxyethyl)amino]methyl}-1H-imidazol-1-yl)-2-methyl-1,2,3,4-tetrahydro-4-quinolinyl]carbamate]
≤ 31.6	CC(=O)N1c2ccc(-n3cnc(CO)c3)cc2[C@@H](NC(=O)OC(C)C)C[C@H]1C (racemic) [Example 89, 1-Methylethyl {(cis)-1-acetyl-6-[4-(hydroxymethyl)-1H-imidazol-1-yl]-2-methyl-1,2,3,4-tetrahydro-4-quinolinyl}carbamate]
≤ 31.6	CC(=O)N1c2ccc(-c3nnc(C)s3)cc2[C@H](NC(=O)OC(C)C)C[C@@H]1C [Example 68, 1-Methylethyl[(2S,4R)-1-acetyl-2-methyl-6-(5-methyl-1,3,4-thiadiazol-2-yl)-1,2,3,4-tetrahydro-4-quinolinyl]carbamate]
≤ 31.6	CC(=O)N1c2ccc(-n3cnc(C)c3)cc2[C@H](NC(=O)OC(C)C)C[C@@H]1C [Example 84, 1-Methylethyl[(2S,4R)-1-acetyl-2-methyl-6-(4-methyl-1H-imidazol-1-yl)-1,2,3,4-tetrahydro-4-quinolinyl]carbamate]
≤ 31.6	CC(=O)N1c2ccc(-c3cn(C)cn3)cc2[C@H](NC(=O)OC(C)C)CC1C (stereo partly drawn) [Example 83, 1-Methylethyl[(2S,4R)-1-acetyl-2-methyl-6-(1-methyl-1H-imidazol-4-yl)-1,2,3,4-tetrahydro-4-quinolinyl]carbamate hydrochloride]
≤ 31.6	CC(=O)N1c2ccc(-n3ccnc3C)cc2[C@H](NC(=O)OC(C)C)C[C@@H]1C [Example 88, 1-Methylethyl[(2S,4R)-1-acetyl-2-methyl-6-(2-methyl-1H-imidazol-1-yl)-1,2,3,4-tetrahydro-4-quinolinyl]carbamate]
≤ 31.6	CC(=O)N1c2ccc(-c3cn(CC(=O)O)cn3)cc2[C@@H](NC(=O)OC(C)C)C[C@H]1C (racemic) [Example 90, {4-[(Cis)-1-acetyl-2-methyl-4-({[(1-methylethyl)oxy]carbonyl}amino)-1,2,3,4-tetrahydro-6-quinolinyl]-1H-imidazol-1-yl}acetic acid trifluoroacetate]
≤ 31.6	CC(=O)N1c2ccc(-c3cn(CCN)cn3)cc2[C@H](NC(=O)OC(C)C)C[C@@H]1C [Example 85, 1-Methylethyl {(2S,4R)-1-acetyl-6-[1-(2-aminoethyl)-1H-imidazol-4-yl]-2-methyl-1,2,3,4-tetrahydro-4-quinolinyl}carbamate hydrochloride]
≤ 31.6	CC(=O)N1c2ccc(-c3ccccn3)cc2[C@H](NC(=O)OC(C)C)C[C@@H]1C [Example 101, 1-Methylethyl[(2S,4R)-1-acetyl-2-methyl-6-(2-pyridinyl)-1,2,3,4-tetrahydro-4-quinolinyl]carbamate]
≤ 31.6	CC(=O)N1c2ccc(-n3cnc(C(=O)O)c3)cc2[C@@H](NC(=O)OC(C)C)C[C@H]1C (racemic) [Example 87, 1-[(Cis)-1-acetyl-2-methyl-4-({[(1-methylethyl)oxy]carbonyl}amino)-1,2,3,4-tetrahydro-6-quinolinyl]-1H-imidazole-4-carboxylic acid]
≤ 31.6	CC(=O)N1c2ccc(-c3ccccc3C)cc2[C@H](NC(=O)OC(C)C)C[C@@H]1C [Example 93, 1-Methylethyl[(2S,4R)-1-acetyl-2-methyl-6-(2-methylphenyl)-1,2,3,4-tetrahydro-4-quinolinyl]carbamate]
≤ 31.6	CC(=O)N1c2ccc(-c3noc(C)n3)cc2[C@H](NC(=O)OC(C)C)C[C@@H]1C [Example 64, 1-Methylethyl[(2S,4R)-1-acetyl-2-methyl-6-(5-methyl-1,2,4-oxadiazol-3-yl)-1,2,3,4-tetrahydro-4-quinolinyl]carbamate]
≤ 31.6	COCn1cc(-c2ccc3c(c2)[C@H](NC(=O)OC(C)C)C[C@H](C)N3C(C)=O)cn1 [Example 106, 1-Methylethyl((2S,4R)-1-acetyl-2-methyl-6-{1-[(methyloxy)methyl]-1H-pyrazol-4-yl}-1,2,3,4-tetrahydro-4-quinolinyl)carbamate]
≤ 31.6	CC(=O)N1c2ccc(-c3cncn3C)cc2[C@H](NC(=O)OC(C)C)C[C@@H]1C [Example 82, 1-Methylethyl[(2S,4R)-1-acetyl-2-methyl-6-(1-methyl-1H-imidazol-5-yl)-1,2,3,4-tetrahydro-4-quinolinyl]carbamate]
